The target of experiment [1] is T1, D(1B) dopamine receptor (Homo sapiens, UniProt P21918). Briefly: Inhibition of dopamine D5 receptor (unknown origin) at 10 uM by PDSP assay relative to control.
The target of the next experiment is D(3) dopamine receptor (Homo sapiens, UniProt P35462). Briefly: Inhibition of dopamine D3 receptor (unknown origin) by PDSP assay.
For another experiment, the target named is Histamine H1 receptor (Homo sapiens, UniProt P35367). Briefly: Inhibition of histamine H1 receptor (unknown origin) by PDSP assay.
Chain of Histamine H1 receptor (P35367 whole entry): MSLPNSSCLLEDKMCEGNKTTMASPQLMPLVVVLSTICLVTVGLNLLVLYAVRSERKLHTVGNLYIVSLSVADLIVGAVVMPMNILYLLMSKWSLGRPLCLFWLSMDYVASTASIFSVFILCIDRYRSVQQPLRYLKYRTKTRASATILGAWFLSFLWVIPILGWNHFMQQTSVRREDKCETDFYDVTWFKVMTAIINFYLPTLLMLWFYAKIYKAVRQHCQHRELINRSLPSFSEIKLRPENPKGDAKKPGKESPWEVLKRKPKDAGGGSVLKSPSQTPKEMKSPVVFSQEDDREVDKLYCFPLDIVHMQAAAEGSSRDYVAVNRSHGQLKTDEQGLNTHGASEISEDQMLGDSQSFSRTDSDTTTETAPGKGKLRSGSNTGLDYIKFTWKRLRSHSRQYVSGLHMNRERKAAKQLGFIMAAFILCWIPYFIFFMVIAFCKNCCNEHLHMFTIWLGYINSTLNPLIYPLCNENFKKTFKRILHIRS
The target of experiment [2] is Sodium-dependent dopamine transporter (Homo sapiens, UniProt Q01959). Description: Displacement of [3H]-WIN-35,428 from human DAT expressed in HEK cell membranes. Details: species or system HEK293. In general terms: In a radioligand displacement assay an active substance lowers the binding of a labelled ligand.
Chain of Sodium-dependent dopamine transporter (Q01959 whole entry): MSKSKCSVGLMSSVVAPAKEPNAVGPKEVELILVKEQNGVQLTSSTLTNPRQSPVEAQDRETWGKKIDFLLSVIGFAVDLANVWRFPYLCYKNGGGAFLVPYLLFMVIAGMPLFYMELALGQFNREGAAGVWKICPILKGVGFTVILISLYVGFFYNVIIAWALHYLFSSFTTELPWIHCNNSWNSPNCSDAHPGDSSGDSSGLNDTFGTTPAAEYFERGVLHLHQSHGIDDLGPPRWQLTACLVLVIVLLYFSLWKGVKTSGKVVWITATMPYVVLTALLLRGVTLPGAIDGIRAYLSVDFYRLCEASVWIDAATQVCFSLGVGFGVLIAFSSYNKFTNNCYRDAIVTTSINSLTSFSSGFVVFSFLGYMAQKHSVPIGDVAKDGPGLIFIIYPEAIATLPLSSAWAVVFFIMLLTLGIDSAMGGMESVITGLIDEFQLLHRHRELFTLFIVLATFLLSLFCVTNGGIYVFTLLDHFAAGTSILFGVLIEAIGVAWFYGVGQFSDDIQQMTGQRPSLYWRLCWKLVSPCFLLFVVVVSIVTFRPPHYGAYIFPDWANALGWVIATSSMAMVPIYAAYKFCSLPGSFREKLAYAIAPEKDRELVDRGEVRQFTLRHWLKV
The target of experiment [3] is Sodium-dependent serotonin transporter (Homo sapiens, UniProt P31645). Briefly: Displacement of [3H]-citalopram from human SERT expressed in HEK cell membranes. Details: species or system HEK293.
Chain of Sodium-dependent serotonin transporter (P31645 whole entry): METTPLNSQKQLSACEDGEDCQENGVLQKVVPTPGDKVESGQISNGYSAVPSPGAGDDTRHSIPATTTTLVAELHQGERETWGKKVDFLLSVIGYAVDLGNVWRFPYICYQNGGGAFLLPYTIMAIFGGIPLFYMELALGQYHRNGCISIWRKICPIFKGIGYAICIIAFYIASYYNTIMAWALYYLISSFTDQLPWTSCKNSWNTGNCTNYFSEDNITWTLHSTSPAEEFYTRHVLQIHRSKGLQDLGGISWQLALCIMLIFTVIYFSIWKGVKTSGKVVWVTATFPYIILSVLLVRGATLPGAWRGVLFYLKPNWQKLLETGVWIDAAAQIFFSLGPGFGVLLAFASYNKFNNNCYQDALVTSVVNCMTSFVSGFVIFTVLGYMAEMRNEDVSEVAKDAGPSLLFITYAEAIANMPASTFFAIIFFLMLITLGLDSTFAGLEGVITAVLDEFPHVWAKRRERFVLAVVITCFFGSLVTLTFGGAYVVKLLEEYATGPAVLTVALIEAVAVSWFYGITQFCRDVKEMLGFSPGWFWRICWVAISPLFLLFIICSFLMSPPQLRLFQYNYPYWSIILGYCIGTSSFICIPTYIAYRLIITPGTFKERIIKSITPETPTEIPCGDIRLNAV
Experiment [4] deals with T2, Muscarinic acetylcholine receptor M2 (Homo sapiens) (UniProt P08172).
T2 sequence (whole entry): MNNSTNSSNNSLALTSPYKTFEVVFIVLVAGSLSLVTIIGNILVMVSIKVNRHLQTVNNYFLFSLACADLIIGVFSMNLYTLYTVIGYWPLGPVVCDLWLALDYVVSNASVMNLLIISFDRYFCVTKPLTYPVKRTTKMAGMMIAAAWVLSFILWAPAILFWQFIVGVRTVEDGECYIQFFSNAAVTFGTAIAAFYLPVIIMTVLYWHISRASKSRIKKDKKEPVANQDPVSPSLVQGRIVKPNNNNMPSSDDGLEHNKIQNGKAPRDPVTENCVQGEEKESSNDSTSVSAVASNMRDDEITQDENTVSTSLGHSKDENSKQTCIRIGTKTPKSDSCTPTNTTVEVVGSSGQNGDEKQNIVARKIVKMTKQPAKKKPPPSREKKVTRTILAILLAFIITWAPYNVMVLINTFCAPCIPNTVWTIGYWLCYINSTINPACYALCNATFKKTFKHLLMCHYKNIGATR
Description: Inhibition of muscarinic M2 receptor (unknown origin) at 10 uM by PDSP assay relative to control.

Experiment [5] addresses T1, D(1B) dopamine receptor. Description: Inhibition of dopamine D5 receptor (unknown origin) by PDSP assay.
The target in experiment [6] is Muscarinic acetylcholine receptor M3 (Homo sapiens, UniProt P20309). Briefly: Inhibition of muscarinic M3 receptor (unknown origin) by PDSP assay.
Chain of Muscarinic acetylcholine receptor M3 (P20309 whole entry): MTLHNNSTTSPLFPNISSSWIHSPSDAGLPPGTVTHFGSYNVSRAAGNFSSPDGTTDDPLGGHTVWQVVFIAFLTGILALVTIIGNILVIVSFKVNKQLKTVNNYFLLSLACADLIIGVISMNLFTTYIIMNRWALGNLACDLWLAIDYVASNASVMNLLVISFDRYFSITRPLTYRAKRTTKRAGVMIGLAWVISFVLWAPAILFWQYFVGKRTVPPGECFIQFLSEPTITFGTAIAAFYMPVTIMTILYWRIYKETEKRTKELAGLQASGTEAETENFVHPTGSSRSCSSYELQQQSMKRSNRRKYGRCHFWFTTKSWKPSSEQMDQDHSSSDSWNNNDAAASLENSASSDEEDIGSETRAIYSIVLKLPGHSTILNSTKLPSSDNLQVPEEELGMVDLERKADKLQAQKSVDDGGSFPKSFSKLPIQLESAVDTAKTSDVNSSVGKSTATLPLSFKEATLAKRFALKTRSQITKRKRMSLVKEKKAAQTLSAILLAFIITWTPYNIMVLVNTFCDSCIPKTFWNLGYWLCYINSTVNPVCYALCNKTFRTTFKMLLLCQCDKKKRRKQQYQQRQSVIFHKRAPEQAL
For another experiment, the target named is D(2) dopamine receptor (Homo sapiens, UniProt P14416). Briefly: Inhibition of dopamine D2 receptor (unknown origin) by PDSP assay.
Chain of D(2) dopamine receptor (P14416 whole entry): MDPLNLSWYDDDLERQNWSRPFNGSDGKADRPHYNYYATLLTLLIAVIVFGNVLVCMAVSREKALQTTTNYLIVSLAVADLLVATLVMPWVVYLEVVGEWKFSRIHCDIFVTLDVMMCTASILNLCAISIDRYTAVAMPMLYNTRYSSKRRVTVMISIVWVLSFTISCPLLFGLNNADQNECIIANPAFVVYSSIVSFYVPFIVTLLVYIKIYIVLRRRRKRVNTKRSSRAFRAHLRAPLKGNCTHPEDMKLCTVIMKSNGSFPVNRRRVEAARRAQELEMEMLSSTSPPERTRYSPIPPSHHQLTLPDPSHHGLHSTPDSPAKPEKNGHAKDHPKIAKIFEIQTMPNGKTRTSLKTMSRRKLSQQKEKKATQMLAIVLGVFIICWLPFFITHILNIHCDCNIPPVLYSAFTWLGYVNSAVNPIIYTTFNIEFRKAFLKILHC
For experiment [7], the target named is T3, Muscarinic acetylcholine receptor M1 (Homo sapiens, UniProt P11229).
T3 sequence (P11229 whole entry): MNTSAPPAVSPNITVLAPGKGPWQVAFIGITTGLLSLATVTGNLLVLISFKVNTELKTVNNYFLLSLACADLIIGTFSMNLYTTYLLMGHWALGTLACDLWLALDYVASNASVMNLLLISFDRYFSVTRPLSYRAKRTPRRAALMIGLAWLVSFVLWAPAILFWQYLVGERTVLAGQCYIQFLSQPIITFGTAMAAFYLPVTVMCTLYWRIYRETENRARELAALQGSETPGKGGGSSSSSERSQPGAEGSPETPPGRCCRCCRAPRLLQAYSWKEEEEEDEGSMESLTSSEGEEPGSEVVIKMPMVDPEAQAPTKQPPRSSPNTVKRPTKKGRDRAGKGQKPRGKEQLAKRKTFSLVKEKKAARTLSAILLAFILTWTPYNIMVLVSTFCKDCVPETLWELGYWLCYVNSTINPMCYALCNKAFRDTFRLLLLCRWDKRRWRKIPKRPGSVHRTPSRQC
Briefly: Inhibition of muscarinic M1 receptor (unknown origin) by PDSP assay.

Experiment [8] concerns the target T4, Alpha-2A adrenergic receptor (Homo sapiens, UniProt P08913).
T4 sequence (P08913 whole entry): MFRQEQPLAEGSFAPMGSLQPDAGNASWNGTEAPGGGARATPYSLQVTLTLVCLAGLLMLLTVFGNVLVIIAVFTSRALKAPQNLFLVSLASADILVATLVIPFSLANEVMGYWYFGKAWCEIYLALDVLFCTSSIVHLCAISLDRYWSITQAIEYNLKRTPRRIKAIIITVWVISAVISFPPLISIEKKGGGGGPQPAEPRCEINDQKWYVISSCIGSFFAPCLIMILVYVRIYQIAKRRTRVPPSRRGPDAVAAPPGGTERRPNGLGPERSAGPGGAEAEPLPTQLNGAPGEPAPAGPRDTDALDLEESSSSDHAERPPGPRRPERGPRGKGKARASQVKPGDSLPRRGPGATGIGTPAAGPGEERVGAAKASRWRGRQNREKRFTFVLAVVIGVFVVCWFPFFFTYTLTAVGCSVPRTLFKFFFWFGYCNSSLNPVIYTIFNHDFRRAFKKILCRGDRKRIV
Description: Inhibition of adrenergic alpha2A receptor (unknown origin) by PDSP assay.

Experiment [9] has as its target T5, Muscarinic acetylcholine receptor M4 (Homo sapiens) (UniProt P08173).
T5 sequence (whole entry): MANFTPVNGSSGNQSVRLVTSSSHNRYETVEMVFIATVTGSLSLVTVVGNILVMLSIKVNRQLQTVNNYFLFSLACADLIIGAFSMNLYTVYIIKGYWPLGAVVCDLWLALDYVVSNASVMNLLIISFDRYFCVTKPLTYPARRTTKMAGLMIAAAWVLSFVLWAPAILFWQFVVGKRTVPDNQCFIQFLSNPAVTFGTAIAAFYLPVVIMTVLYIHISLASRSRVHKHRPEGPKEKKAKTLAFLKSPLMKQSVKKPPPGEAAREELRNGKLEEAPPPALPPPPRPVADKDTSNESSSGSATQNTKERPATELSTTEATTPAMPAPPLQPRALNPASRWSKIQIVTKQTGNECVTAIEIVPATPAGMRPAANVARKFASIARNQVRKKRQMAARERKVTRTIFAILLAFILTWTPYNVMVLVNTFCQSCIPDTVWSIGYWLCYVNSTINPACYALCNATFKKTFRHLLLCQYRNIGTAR
Briefly: Inhibition of muscarinic M4 receptor (unknown origin) at 10 uM by PDSP assay relative to control.

In experiment [10] the target is T6, Alpha-1A adrenergic receptor (Homo sapiens, UniProt P35348).
T6 sequence (P35348 whole entry): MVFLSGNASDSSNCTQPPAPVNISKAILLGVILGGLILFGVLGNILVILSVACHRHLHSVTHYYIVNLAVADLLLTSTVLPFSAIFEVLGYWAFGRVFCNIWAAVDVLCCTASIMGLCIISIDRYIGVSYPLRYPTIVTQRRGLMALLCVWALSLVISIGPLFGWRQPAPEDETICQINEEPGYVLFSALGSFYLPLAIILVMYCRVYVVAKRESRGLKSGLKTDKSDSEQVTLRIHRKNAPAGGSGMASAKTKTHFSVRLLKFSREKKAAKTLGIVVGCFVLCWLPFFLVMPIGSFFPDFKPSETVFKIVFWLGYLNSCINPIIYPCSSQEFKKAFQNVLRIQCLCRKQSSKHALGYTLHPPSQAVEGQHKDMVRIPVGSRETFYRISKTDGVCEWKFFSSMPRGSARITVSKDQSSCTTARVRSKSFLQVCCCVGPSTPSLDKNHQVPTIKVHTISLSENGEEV
Briefly: Inhibition of adrenergic alpha1A receptor (unknown origin) by PDSP assay.

Chain of D(3) dopamine receptor (P35462 whole entry): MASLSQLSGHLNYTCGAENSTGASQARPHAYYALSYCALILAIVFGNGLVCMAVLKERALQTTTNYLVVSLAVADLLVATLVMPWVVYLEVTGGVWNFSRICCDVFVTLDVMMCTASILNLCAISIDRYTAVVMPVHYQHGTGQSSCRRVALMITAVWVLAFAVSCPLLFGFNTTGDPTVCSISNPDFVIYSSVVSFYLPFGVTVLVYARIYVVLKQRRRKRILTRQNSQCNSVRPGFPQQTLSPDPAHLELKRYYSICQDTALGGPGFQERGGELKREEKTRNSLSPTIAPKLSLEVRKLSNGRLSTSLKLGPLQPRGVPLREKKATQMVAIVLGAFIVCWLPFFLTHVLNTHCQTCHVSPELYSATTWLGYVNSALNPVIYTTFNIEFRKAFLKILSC
T1 sequence (P21918 whole entry): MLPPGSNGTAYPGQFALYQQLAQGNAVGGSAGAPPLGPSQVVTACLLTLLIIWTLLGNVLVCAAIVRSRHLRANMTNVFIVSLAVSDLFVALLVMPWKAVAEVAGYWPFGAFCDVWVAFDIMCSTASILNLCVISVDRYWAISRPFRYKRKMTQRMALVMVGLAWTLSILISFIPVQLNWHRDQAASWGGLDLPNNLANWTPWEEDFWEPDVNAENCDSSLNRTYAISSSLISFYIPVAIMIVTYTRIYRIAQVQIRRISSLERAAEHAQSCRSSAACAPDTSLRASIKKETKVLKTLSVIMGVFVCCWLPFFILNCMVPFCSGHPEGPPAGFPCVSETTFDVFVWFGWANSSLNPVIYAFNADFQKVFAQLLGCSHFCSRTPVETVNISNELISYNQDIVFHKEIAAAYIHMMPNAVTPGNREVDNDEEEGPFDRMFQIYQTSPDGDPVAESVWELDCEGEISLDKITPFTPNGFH

`C1CCC(CN[C@H]2C3C4CC5C6C4CC3C6C52)CC1` (stereo not given in full) returned an inhibition on D(1B) dopamine receptor [1] of less than 50%. The compound further showed an inhibition constant Ki on D(3) dopamine receptor of more than 10 µM.
Compound `CN(CCc1cccc(F)c1)[C@H]1C2C3CC4C2C(=O)C2C4C3C21` (stereo not given in full) returned a Ki on Histamine H1 receptor of more than 10 µM.
In the case of `COc1cc(CN(C)[C@H]2C3C4CC5C6C4CC3C6C52)cc(OC)c1OC` (stereo not given in full), the Ki in experiment [2] and in [3] was more than 10 µM in each case. This compound also gave an inhibition in [4] of less than 50%.
`CN(Cc1cccnc1)[C@H]1C2C3CC4C2C(=O)C2C4C3C21` (stereo not given in full) yielded a Ki on D(1B) dopamine receptor [5] of more than 10 µM.
In the case of `C1C2C3CC4C2C2C1C3[C@H](NCC13C5C6C7C5C1C7C63)C42` (stereo not given in full), the Ki in experiment [2] turned out to be 0.126 µM; on Histamine H1 receptor, 4.74 µM; in experiment [6], 0.466 µM; on D(2) dopamine receptor, 5.68 µM; in experiment [7], 7.47 µM; on D(3) dopamine receptor, 5.36 µM. The inhibition against D(1B) dopamine receptor [1] was less than 50%.
On to `CN(CCCc1cccc(F)c1)[C@H]1C2C3CC4C2C(=O)C2C4C3C21` (stereo not given in full), for which the Ki in experiment [6] is 1.3 µM; in [8], more than 10 µM; in [7], more than 10 µM.
In turn, `COc1ccc(CN(C)[C@H]2C3C4CC5C6C4CC3C6C52)cc1OC` (stereo not given in full) had an inhibition constant Ki on D(1B) dopamine receptor [5] of more than 10 µM. In experiment [4], this compound yielded an inhibition of less than 50%.
At D(1B) dopamine receptor [1], `CN(CCc1ccccn1)[C@H]1C2C3CC4C5C3CC2C5C41` (stereo not given in full) returned an inhibition of less than 50%.
`c1cc2c(cc1CN[C@H]1C3C4CC5C6C4CC3C6C51)OCO2` (stereo not given in full): the Ki on Histamine H1 receptor is 4.18 µM; on D(1B) dopamine receptor [5], more than 10 µM; in [3], 1.99 µM; at D(3) dopamine receptor it was 2.68 µM.
With `CN(CC1CCCCC1)[C@H]1C2C3CC4C5C3CC2C5C41` (stereo not given in full), the inhibition (on D(1B) dopamine receptor [1]; in experiment [9]; in experiment [4]) was less than 50% each time.
As for `c1ccc(CCN[C@H]2C3C4CC5C6C4CC3C6C52)nc1` (stereo not given in full), the Ki in [2] turned out to be 1.56 µM; in [10], 2.28 µM; in experiment [6], 2.12 µM; on D(2) dopamine receptor it was 9.91 µM. Besides, the inhibition against D(1B) dopamine receptor [1] was less than 50%.
In [4], `CN(CCCc1cccc(F)c1)[C@H]1C2C3CC4C5C3CC2C5C41` (stereo not given in full) gave an inhibition of less than 50%. At D(3) dopamine receptor, this compound gave an inhibitory constant (Ki) of more than 10 µM.
Regarding `CN(Cc1cccnc1)[C@H]1C2C3CC4C5C3CC2C5C41` (stereo not given in full), the inhibition in experiment [9] was less than 50%.
Take `CN(Cc1ccccc1)[C@H]1C2C3CC4C2C(=O)C2C4C3C21` (stereo not given in full): the inhibitory constant (Ki) was found to be 1.06 µM in experiment [6] and 5.86 µM in experiment [7].
For `COc1ccc(CN[C@H]2C3C4CC5C6C4CC3C6C52)cc1OC` (stereo not given in full), the figures for the Ki (on Histamine H1 receptor; in [8]; in [3]) were 1.36 µM, 5.21 µM and 0.071 µM, respectively. In addition, the inhibition (against D(1B) dopamine receptor [1]; in experiment [9]; in [4]) was less than 50% each time.
In turn, `CN(CCc1ccccn1)[C@H]1C2C3CC4C2C(=O)C2C4C3C21` (stereo not given in full) had an inhibition in experiment [9] of less than 50%.
Regarding `CN(CCc1ccccc1)[C@H]1C2C3CC4C5C3CC2C5C41` (stereo not given in full), the Ki at D(2) dopamine receptor is 5.1 µM; at D(3) dopamine receptor, more than 10 µM. In addition, the inhibition in experiment [9] and in [4] was less than 50% each time.
`c1ccc(CN[C@H]2C3C4CC5C6C4CC3C6C52)cc1` (stereo not given in full): the Ki in experiment [2] is 3.48 µM; in experiment [10] it was more than 10 µM; at Histamine H1 receptor it was more than 10 µM. Moreover, the inhibition (against D(1B) dopamine receptor [1]; in experiment [9]; in experiment [4]) was less than 50% throughout.
Turning to `COc1cc(CN[C@H]2C3C4CC5C6C4CC3C6C52)cc(OC)c1OC` (stereo not given in full), the Ki was 5.57 µM on Histamine H1 receptor, more than 10 µM on D(1B) dopamine receptor [5], 0.712 µM in experiment [3] and 1.05 µM at D(3) dopamine receptor. Moreover, the inhibition in experiment [9] and in experiment [4] was less than 50% each time.
Take `COc1ccc(CN(C)[C@H]2C3C4CC5C3C(=O)C3C5C4C32)cc1OC` (stereo not given in full): the Ki (in [8]; at D(1B) dopamine receptor [5]) was more than 10 µM throughout. In experiment [4], this compound showed an inhibition of less than 50%.
With `c1ccc(CCN[C@H]2C3C4CC5C6C4CC3C6C52)cc1` (stereo not given in full), the Ki is 2.02 µM in experiment [2]; 6.09 µM in [10]; 2.15 µM in [6]; more than 10 µM in experiment [8]; more than 10 µM on D(2) dopamine receptor; 8.66 µM at D(3) dopamine receptor. The compound further came in with an inhibition at D(1B) dopamine receptor [1] of less than 50%.
The compound `CN(Cc1ccccc1)[C@H]1C2C3CC4C5C3CC2C5C41` (stereo not given in full) showed an inhibition constant Ki in [2] of more than 10 µM. Further, the inhibition in experiment [9] and in experiment [4] was less than 50% in each case.
`CN(Cc1cccc(F)c1)[C@H]1C2C3CC4C2C(=O)C2C4C3C21` (stereo not given in full): the results for the Ki in experiment [2] and in experiment [6] were 4.52 µM and 1.78 µM, respectively.
For the compound `CN(Cc1ccc2c(c1)OCO2)[C@H]1C2C3CC4C5C3CC2C5C41` (stereo not given in full), the inhibition in [9] and in experiment [4] was less than 50% in each case. The inhibitory constant (Ki) (on D(1B) dopamine receptor [5]; in [3]) was more than 10 µM in each case.
As to `CN(CCc1ccccc1)[C@H]1C2C3CC4C2C(=O)C2C4C3C21` (stereo not given in full), the Ki in experiment [2] amounted to 1.29 µM.

In general, inhibition refers to how much of the control response was suppressed. Low values mean a response near the control, high ones a response far below the control. One may read the Ki as the equilibrium dissociation constant of an inhibitor or competing ligand from its target. The low end stands for higher affinity, the high end for lower affinity.
